Non-standard residues stand in square brackets, D forms with d. No end group written: not given here.
Assays:
[1] = tested on: plasma membrane of several mammalian cell types; conditions: Zhao et al., 2003; cited from earlier work
[2] = tested on: kidney, ischemia/reperfusion insult; assay: Rat model of renal ischemia-reperfusion; assay type: in vivo, Sprague Dawley rat; conditions: rats; 3 mg/kg 30 min before ischemia and before reperfusion; 45 min ischemia and 24 h reperfusion; predicted
Procedure: Sprague Dawley rats (250-300 g) are assigned to three groups: (1) sham surgery group without I/R; (2) I/R+saline vehicle treatment; (3) I/R+D-Arg-2′,6′-Dmt-Lys-Phe-NH2 (acetate salt) treatment. D-Arg-2′,6′-Dmt-Lys-Phe-NH2 (acetate salt) (3 mg/kg, dissolved in saline) is administered to rats 30 min before ischemia and immediately before onset of reperfusion. The control rats are given saline alone on the same schedule. Rats are anesthetized with a mixture of ketamine (90 mg/kg, i.p.) and xylazine (4 mg/kg, i.p.). The left renal vascular pedicle is occluded temporarily using a micro-clamp for 30 or 45 min. At the end of the ischemic period, reperfusion is established by removing of the clamp. At that time, the contralateral right kidney is removed. After 24 h reperfusion, animals are sacrificed and blood samples were obtained by cardiac puncture. Renal function is determined by blood urea nitrogen (BUN) and serum creatinine (BioAssay Systems DIUR-500 and DICT-500).
Analysis of No-reflow Zones, and Necrosis. The kidneys are sliced transversely into 6-8 sections. The slices are photographed under ultraviolet light to identify the region of no reflow. The areas of no-reflow in each slice are digitized using Image J (supplier Rasband WS, Image J, National Institutes of Health). […]

[3] = tested on: anatomic zone of no-reflow in the heart; assay: No-reflow phenomenon in humans with ST-segment elevation treated with PCI; assay type: in vivo, human; conditions: patients; iv bolus less than 10 min before direct stenting; vs placebo; predicted
Procedure: Men and women, 18 years of age or older, who present within 6 hours after the onset of chest pain, who have ST-segment elevation of more than 0.1 mV in two contiguous leads, and for whom the clinical decision is made to treat with percutaneous coronary intervention (PCI) are eligible for enrollment. Patients are eligible for the study whether they are undergoing primary PCI or rescue PCI. Occlusion of the culprit coronary artery (Thrombolysis in Myocardial Infarction [TIMI] flow grade 0) at the time of admission is also a criterion for inclusion.
Left ventricular and coronary angiography is performed with the use of standard techniques, just before revascularization. […]
The primary end point is the size of the anatomic zone of no-reflow as assessed by one or more imaging techniques. Re-flow phenomenon is assessed using myocardial contrast echocardiography, coronary angiography, myocardial blush, coronary doppler imaging, electrocardiography, nuclear imaging single-photon emission CT, using thallium or technetium-99m, or PET. […] Post-contrast delayed enhancement is used on day 4±1, day 30±3 and 6+1.5 months after successful PCI and stenting to quantify infracted myocardium. This is defined quantitatively by an intensity of the myocardial post-contrast signal that is more than 2 SD above that in a reference region of remote, non-infarcted myocardium within the same slice. […]

[4] = tested on: rabbit heart, ischemia/reperfusion insult; assay: Rabbit model of AMI: regional myocardial ischemia (30 min CAO) and reperfusion (3 h); risk zone, no-reflow zone and infarct size; assay type: in vivo, New Zealand White rabbit; conditions: for No-reflow/area at risk / No-reflow/area of necrosis: all hearts with AR >10% of LV, mean ± SEM; for Mean IA/AR: low dose
[5] = tested on: brain, ischemia/reperfusion insult; assay: Mouse model of cerebral ischemia-reperfusion (occlusion of the middle cerebral artery); assay type: in vivo; conditions: wild type mice; 2-5 mg/kg ip at 0, 6, 24 and 48 h after ischemia; predicted
Procedure: Cerebral ischemia initiates a cascade of cellular and molecular events that lead to brain damage. One such event is an anatomic zone of no-reflow. Cerebral ischemia is induced by occlusion of the right middle cerebral artery for 30 min. Wild-type (WT) mice are given either saline vehicle (Veh) (ip) or D-Arg-2′,6′-Dmt-Lys-Phe-NH2 (acetate salt) (2-5 mg/kg) at 0, 6, 24 and 48 h after ischemia. Mice are killed 3 days after ischemia. The brains are sliced transversely into 6-8 sections. The slices are photographed under ultraviolet light to identify the region of no-reflow. The areas of no-reflow in each slice are digitized using Image J (supplier Rasband WS, Image J, National Institutes of Health). The areas in each slice are multiplied by the weight of the slice and the results will summed in order to obtain the mass of the no-reflow areas.
As such, the peptide D-Arg-2′,6′-Dmt-Lys-Phe-NH2 is effective in reducing the incidence of no-reflow caused by ischemia-reperfusion in the brain.

mu-opioid receptor = conditions: stated in the description, no data shown; cited from earlier work
[6] = Group 1, N=15, infusion from 10′ after CAO
[7] = Group 2, N=17, infusion from 20′ after CAO
[8] = Group 3, N=17, infusion from 29′ after CAO

Substance: 2′,6′-Dmt-D-Arg-Phe-Lys-NH2
- penetration of the plasma membrane [1]: readily penetrates the plasma membrane of several mammalian cell types in an energy-independent manner

Substance: D-Arg-2′,6′-Dmt-Lys-Phe-NH2
- anatomic zone of no-reflow in the kidney [2]: prevents or reduces the anatomic zone of no-reflow
- size of the anatomic zone of no-reflow [3]: smaller anatomic zone of no-reflow than that seen with placebo
- No-reflow/area at risk [4, 6]: 0.23 ± 0.02
- No-reflow/area of necrosis [4, 6]: 0.74 ± 0.04
- No-reflow/area at risk [4, 7]: 0.21 ± 0.03
- No-reflow/area of necrosis [4, 7]: 0.63 ± 0.05
- No-reflow/area at risk [4, 8]: 0.21 ± 0.03
- No-reflow/area of necrosis [4, 8]: 0.70 ± 0.09
- no-reflow for any given risk zone size ([4]; rabbit AMI, ANCOVA, treated groups combined vs control p=0.0085): significantly reduced
- infarct size reduced by up to ([4]; rabbit AMI, in some experiments (Table 13; FIG. 5)): up to 44.7%
- infarct size reduced, average ([4]; rabbit AMI, in some experiments (not shown)): 11%
- Results: reduction of mean IA/AR from placebo ([4]; rabbit AMI, infusion started 10 min into 30 min of ischemia): ↓44.7% from placebo
- Results: reduction of mean IA/AR from placebo ([4]; rabbit AMI, infusion started 20 min into 30 min of ischemia): ↓25.5% from placebo
- Results: reduction of mean IA/AR from placebo ([4]; rabbit AMI, infusion started 30 min into ischemia immediately prior to reperfusion): ↓25.5% from placebo
- Mean IA/AR ([4]; rabbit AMI, iv infusion started 10 min into 30 min of ischemia): 20.7%
- Mean IA/AR ([4]; rabbit AMI, iv infusion started 20 min into 30 min of ischemia): 27.9%
- Mean IA/AR ([4]; rabbit AMI, iv infusion started 30 min into ischemia immediately prior to reperfusion): 26.7%
- reduction in the extent of no-reflow compared with control hearts (trend) ([4]; rabbit AMI, treated vs control): 21%
- Necrotic area divided by area-at-risk (AN/AR), mean ([4]; rabbits with AR/LV >15%, all active groups combined, N=48): 0.318
- anatomic zone of no-reflow in the brain [5]: prevent or reduce the anatomic zone of no-reflow
- infarct volume [5]: significant reduction in infarct volume
- mu-opioid receptor agonist activity (mu-opioid receptor): does not have mu-opioid receptor agonist activity

Substance: F[dR]FK-NH2
- mu-opioid receptor agonist activity (mu-opioid receptor): does not have mu-opioid receptor agonist activity

Substance: Tyr-D-Arg-Phe-Lys-NH2
- mu-opioid receptor agonist activity (mu-opioid receptor): has mu-opioid receptor agonist activity

Reference: patent US9345738B2, “Methods for the prevention or treatment of no-reflow following ischemia/reperfusion injury” (Stealth BioTherapeutics Corp., priority 2010, dated 2016)
